The results in this text go back to EPA's ToxValDB 9.5 (doi:10.2903/j.efsa.2018.5251).

SMILES strings stand for the structures.

For one data set, the system named is Apis mellifera. The note with it: acute, mortality.
In a further data set the test system is Anas platyrhynchos. The note with it: short-term; oral; feed; mortality.
The subject of the next data set is Colinus virginianus. Particulars: acute; oral; mortality.
The subject of the next data set is Coturnix japonica. Particulars: reproduction developmental.
The subject of the next data set is Lepomis macrochirus. Particulars: acute; duration: 96 hours.
A further data set concerns Tagia sp. The note with it: for LC50: acute; for NOEC: chronic/long-term, duration: 8 weeks.
In a further data set the test system is Rattus norvegicus. The note with it: for LD50: acute, oral, mortality.
A further data set relates to Hypoaspis aculeifer. As to the kind of experiment: LR50; higher = less toxic. The note with it: acute.
The next data set concerns Folsomia candida. Particulars: chronic/long-term; duration: 28 days.
Setting [1] is: reproduction developmental, reproduction.

By NOAEL is commonly meant the highest dose or exposure tested at which no adverse effect was seen. On to `COC(=O)[N-]S(=O)(=O)c1ccc(N)cc1.[Na+]` [Asulam-sodium], for which the LD50 was more than 100 µg/piece with Apis mellifera (dermal); more than 124 µg/piece in the data set on Apis mellifera (oral, unspecified); more than 1830 mg/kg-day with Colinus virginianus; more than 4560 mg/kg-day with Rattus norvegicus. Moreover, the LC50 in the data set with Anas platyrhynchos was more than 100000 mg/kg; in the data set on Lepomis macrochirus it was more than 91.3 µg/mL; with Tagia sp. (duration: 14 days) it was 1000 mg/kg. Also, the results for the NOAEL in the data set with Coturnix japonica and in the data set on Rattus norvegicus (setting [1]) were 65 mg/kg-day and 46 mg/kg-day, respectively. In the data set on Tagia sp., this molecule came in with an NOEC of 181 mg/kg. Moreover, the NOEL with Rattus norvegicus (setting [1]) worked out at 46 mg/kg-day. This molecule also came in with an LR50 in the data set on Hypoaspis aculeifer of more than 4370 mg/kg.

Consider `Nc1ccc(S(N)(=O)=O)cc1` [Sulfanilamide], for which the NOAEC in the data set on Folsomia candida stood at 50 mg/kg. In the data set with Tagia sp., this molecule had an LC50 of more than 1000 mg/kg and an NOEC of 3.75 mg/kg. In addition, the LD50 with Rattus norvegicus (F) was more than 2000 mg/kg-day.
